Activity calls are given as the source filed them. The rule behind the calls is not given here.
Legend:
[1] = Drug uptake in tumor of athymic nu/nu mouse xenografted with human SJSA-1 cells assessed as half life of metabolite ALRN-8714 at 25 mg/kg, iv measured for 24 hrs by LC-MS-MS analysis; assay type: ADME, organism-based, Neoplasm; conditions: in vivo
[2] = Clearance in cynomolgous monkey at 10 mg/kg by LC-MS/MS analysis; assay type: ADME, organism-based, Macaca fascicularis; conditions: cynomolgus monkey, in vivo
Bone marrow cell [3] = assay: Upregulation of p21 mRNA level in bone marrow cells of C57BL/6 mouse at 2.4 mg/kg, iv measured for 24 hrs by qRT-PCR analysis; assay type: functional, organism-based
[4] = AUC (all) in cynomolgous monkey at 10 mg/kg by LC-MS/MS analysis; assay type: ADME, organism-based, Macaca fascicularis; parameters: dose 10 mg/kg; conditions: cynomolgus monkey, in vivo
MCF7 = assay: Antitumor activity against human MCF7 cells xenografted in athymic nude BALB/c mouse assessed as tumor regression at 20 mg/kg, iv measured upto 48 hrs by immunohistochemical analysis; assay type: functional, organism-based
Bone marrow cell [5] = assay: Upregulation of p21 expression level in bone marrow cells of C57BL/6 mouse at 2.4 mg/kg, iv administered every 8 hrs measured for 16 hrs by immunohistochemical analysis; assay type: functional, organism-based
[6] = AUC (all) in rat at 10 mg/kg by LC-MS/MS analysis; assay type: ADME, organism-based; parameters: dose 10 mg/kg; conditions: in vivo
NCI-H69 = assay: Antitumor activity against human NCI-H69 cells xenografted in athymic nu/nu mouse assessed as reduction in tumor volume at 8 mg/kg administered on day 0 to 4 and co-administered 30 mins prior to topotecan on day 1 to 4 followed by topotecan administration on day 5 measured for 60 days; assay type: functional, organism-based; conditions: time 60.0 day
[7] = AUC (all) in rat at 5 mg/kg by LC-MS/MS analysis; assay type: ADME, organism-based; parameters: dose 5 mg/kg; conditions: in vivo
[8] = Half life in cynomolgous monkey at 5 mg/kg by LC-MS/MS analysis; assay type: ADME, organism-based, Macaca fascicularis; conditions: cynomolgus monkey, in vivo
Fibroblast [9] = assay: Protection against chemotherapy-induced apoptosis in human fibroblast assessed as decrease in caspase-3/7 level preincubated for 16 hrs followed by docetaxel trihydrate addition measured after 32 hrs; assay type: functional, cell-based; conditions: dose 4.6-10 µM, time 48.0 hrs
[10] = Half life in mouse at 5 mg/kg by LC-MS/MS analysis; assay type: ADME, organism-based; conditions: in vivo
Fibroblast [11] = assay: Protection against chemotherapy-induced apoptosis in human fibroblast assessed as decrease in caspase-3/7 level preincubated for 16 hrs followed by paclitaxel addition measured after 32 hrs; assay type: functional, cell-based; conditions: dose 4.6-10 µM, time 48.0 hrs
[12] = Clearance in cynomolgous monkey at 5 mg/kg by LC-MS/MS analysis; assay type: ADME, organism-based, Macaca fascicularis; conditions: cynomolgus monkey, in vivo
Fibroblast [13] = assay: Protection against chemotherapy-induced apoptosis in human fibroblast assessed as decrease in caspase-3/7 level preincubated for 16 hrs followed by doxorubicin addition measured after 32 hrs; assay type: functional, cell-based; conditions: dose 4.6-10 µM, time 48.0 hrs
[14] = Solubility of the compound in aqueous solution at pH 7.5 incubated for 1 hr by spectrophotometric analysis; assay type: physicochemical
SJSA-1 = assay: Antitumor activity against human SJSA-1 cells xenografted in athymic nu/nu mouse […] assessed as tumor growth inhibition administered intravenously thrice a week measured for 15 days; assay type: functional, cell-based; conditions: dose 13.3 mg/kg, route iv, time 15.0 day
BT-474 = assay: […] chemotherapy-induced apoptosis in human BT-474 cells assessed as decrease in caspase-3/7 level at 4.6 to 10 uM preincubated for 16 hrs followed by doxorubicin addition measured after 32 hrs; assay type: functional, cell-based; conditions: dose 4.6-10 µM, time 48.0 hrs
MV4-11 = assay: Antitumor activity against human MV4-11 cells xenografted in athymic nu/nu mouse model of AML assessed as tumor growth inhibition; assay type: functional, cell-based
Bone marrow cell [15] = assay: Protection against cell cycle arrest at S phase in bone marrow cells of C57BL/6 mouse at 10 mg/kg, iv measured for 8 hrs by FACS analysis; assay type: functional, organism-based
Mus musculus [16] = assay: Protection against topotecan-induced epithelium hyperplasia in gastrointestinal tract of C57BL/6 mouse at 2.4 mg/kg administered on day 0 to 4 and co-administered 30 mins prior to topotecan on day 1 to 4 followed by topotecan administration on day 5 measured on day 9 by H&E staining based analysis; assay type: functional, organism-based; conditions: time 9.0 day
Bone marrow cell [17] = assay: Upregulation of Noxa mRNA level in bone marrow cells of C57BL/6 mouse at 10 mg/kg, iv measured for 24 hrs by qRT-PCR analysis; assay type: functional, organism-based
Mus musculus [18] = assay: Protection against topotecan-induced epithelium hypertrophy in gastrointestinal tract of C57BL/6 mouse at 2.4 mg/kg administered on day 0 to 4 and co-administered 30 mins prior to topotecan on day 1 to 4 followed by topotecan administration on day 5 measured on day 9 by H&E staining based analysis; assay type: functional, organism-based; conditions: time 9.0 day
[19] = Cmax in cynomolgous monkey at 10 mg/kg by LC-MS/MS analysis; assay type: ADME, organism-based, Macaca fascicularis; parameters: dose 10 mg/kg; conditions: cynomolgus monkey, in vivo
[20] = Drug uptake in plasma of athymic nu/nu mouse xenografted with human SJSA-1 cells assessed as AUC (0 to 24 hrs) of metabolite ALRN-8714 at 25 mg/kg, iv measured for 24 hrs by LC-MS-MS analysis; assay type: ADME, organism-based; parameters: time 24 hrs, dose 25 mg/kg, route iv; conditions: in vivo
[21] = Clearance in rat at 10 mg/kg by LC-MS/MS analysis; assay type: ADME, organism-based; conditions: in vivo
Bone marrow cell [22] = assay: Upregulation of serum MIC-1 level […] of C57BL/6 mouse at 2.4 mg/kg, iv administered every 8 hrs measured for 24 hrs by ELISA method; assay type: functional, organism-based
CTG-0449 = assay: Antitumor activity against patient-derived human CTG-0449 cells xenografted in athymic nu/nu mouse model of AML assessed as tumor growth inhibition administered intravenously twice a week measured for 20 days; assay type: functional, cell-based; conditions: dose 10-20 mg/kg, route iv, time 20.0 day
[23] = AUC (0 to 24 hrs) in plasma of athymic nu/nu mouse xenografted with human SJSA-1 cells at 25 mg/kg, iv measured for 24 hrs by LC-MS-MS analysis; assay type: ADME, organism-based; parameters: time 24 hrs, dose 25 mg/kg, route iv; conditions: in vivo
[24] = Plasma protein binding in monkey at 2 to 50 uM; assay type: ADME, cell-free, Macaca mulatta; conditions: rhesus monkey, dose 2-50 µM, read-out: PPB (converted)
[25] = Plasma protein binding in human at 250 uM; assay type: ADME, cell-free; conditions: read-out: PPB (converted)
[26] = Induction of cell cycle arrest in human CD34+ cells assessed as accumulation at S phase at 1 uM incubated for 24 hrs by flow cytometry (reference value: 27.5 +/- 5.8%); assay type: toxicity, cell-based; conditions: cd34-positive (myeloid/lymphoid) cell
[27] = AUC (all) in mouse at 5 mg/kg by LC-MS/MS analysis; assay type: ADME, organism-based; parameters: dose 5 mg/kg; conditions: in vivo
[28] = Clearance in rat at 2.5 mg/kg by LC-MS/MS analysis; assay type: ADME, organism-based; conditions: in vivo
[29] = Cmax in rat at 10 mg/kg by LC-MS/MS analysis; assay type: ADME, organism-based; parameters: dose 10 mg/kg; conditions: in vivo
MC-38 = assay: Antitumor activity against mouse MC38 cells allografted in C57BL/6 mouse assessed as reduction in tumor volume at 8 mg/kg administered on day 0 to 4 and co-administered 30 mins prior to topotecan on day 1 to 4 followed by topotecan administration on day 5 measured for 40 days; assay type: functional, organism-based; conditions: time 40.0 day
Bone marrow cell [30] = assay: Downregulation of cPARP expression level in bone marrow cells of C57BL/6 mouse at 2.4 mg/kg, iv administered every 8 hrs measured for 16 hrs by immunohistochemical analysis; assay type: functional, organism-based
[31] = AUC (0 to 24 hrs) in tumor of athymic nu/nu mouse xenografted with human SJSA-1 cells at 25 mg/kg, iv measured for 24 hrs by LC-MS-MS analysis; assay type: ADME, organism-based, Neoplasm; parameters: dose 25 mg/kg, time 24 hrs, route iv; conditions: in vivo

## CC(=O)N[C@@H](CC(C)C)C(=O)N[C@H](C(=O)N[C@@H](Cc1ccccc1)C(=O)N[C@]1(C)CCCCCC/C=C/CCC[C@@](C)(C(=O)N[C@@H](C)C(=O)N[C@@H](C)C(=O)N[C@@H](C)C(=O)N[C@@H](C)C(=O)N[C@@H](C)C(=O)N[C@H](C)C(N)=O)NC(=O)[C@H](CC(C)C)NC(=O)[C@H](CCC(N)=O)NC(=O)[C@H](C)NC(=O)[C@H](Cc2c[nH]c3ccccc23)NC(=O)[C@H](Cc2ccc(O)cc2)NC(=O)[C@H](CCC(=O)O)NC1=O)[C@@H](C)O
[1]
  t1/2: 9 h
[2]
  clearance: 0.127 mL/min/kg
Bone marrow cell [3]
  Activity: Active
[4]
  AUC: 1350 µg·h/mL
MCF7
  Activity: inactive
Bone marrow cell [5]
  Activity: Active
[6]
  AUC: 562 µg·h/mL
NCI-H69
  Activity: Active
[7]
  AUC: 223 µg·h/mL
[8]
  half-life: 4.9 h
Fibroblast [9]
  Activity: Dose-Dependent Effect
[10]
  half-life: 2.2 h
Fibroblast [11]
  Activity: Dose-Dependent Effect
[12]
  clearance: 0.0983 mL/min/kg
Fibroblast [13]
  Activity: Dose-Dependent Effect
[14]
  solubility at 1 h: ≤ 75 µg/mL
SJSA-1
  Activity: Dose-Dependent Effect
BT-474
  Activity: inactive
MV4-11
  Activity: Dose-Dependent Effect
Bone marrow cell [15]
  Activity: Active
Mus musculus [16]
  Activity: Active
Bone marrow cell [17]
  Activity: Active
Mus musculus [18]
  Activity: Active
[19]
  Cmax: 236 µg/mL
[20]
  AUC: 85 µg·h/g
[21]
  clearance: 0.317 mL/min/kg
Bone marrow cell [22]
  Activity: Active
CTG-0449
  Activity: Dose-Dependent Effect
[23]
  AUC: 3180 µg·h/mL
[24]
  fraction unbound at up to 50 µM: 0.08
[25]
  fraction unbound at 250 µM: 0.19
[26]
  Activity: 4.23%
[27]
  AUC: 450 µg·h/mL
[28]
  clearance: 0.467 mL/min/kg
[29]
  Cmax: 186 µg/mL
MC-38
  Activity: Active
Bone marrow cell [30]
  Activity: Active
[31]
  AUC: 1 µg·h/g

From ChEMBL document CHEMBL5346962, “Discovery of Sulanemadlin (ALRN-6924), the First Cell-Permeating, Stabilized α-Helical Peptide in Clinical Development” (J Med Chem, 2023)
